Assay in all cases: DTP human tumour cell line panel, 48 h
Assay [1] concerns MDA-MB-231 breast.
For assay [2], the system named is NCI/ADR-RES ovarian.
The test system of assay [3] is DU-145 prostate.
Assay [4] deals with HS 578T breast.
Assay [5] deals with PC-3 prostate.
Assay [6] has as its system MDA-N.

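Each compound was tested at five concentrations against cells in 96-well plates for 48 hours. GI50 is the concentration that inhibits growth by half. At the TGI there is no net growth.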 Bounds are passed on as bounds.

As usually defined, the GI50 is the concentration that inhibits growth by half. The term TGI denotes the concentration giving total growth inhibition. `COC1/C=C/OC2(C)Oc3c(C)c(O)c4c(O)c(c(C=NOC(c5ccccc5)c5ccccc5)c(O)c4c3C2=O)NC(=O)/C(C)=C/C=C/C(C)C(O)C(C)C(O)C(C)C(OC(C)=O)C1C` (stereo not drawn): the GI50 in assay [1] was 1.35 µM; in assay [2], 1.67 µM; in assay [3], 2.05 µM; in assay [4], 1.5 µM; in assay [5] it was 1.34 µM. The TGI in assay [1] amounted to 3.49 µM; in assay [2] it was 6.19 µM; in assay [3], 6.87 µM; in assay [4], 5.17 µM; in assay [5], 4.15 µM.
For the molecule `Cn1cc(-c2ccc3nnc(C(F)(F)c4ccc5ncccc5c4)n3n2)cn1`, the GI50 is 34.2 µM in assay [1]; 62.2 µM in assay [2]; 53.9 µM in assay [3]; 34.2 µM in assay [4]; 85 µM in assay [5]. Also, the TGI in assay [1], in assay [2], in assay [3], in assay [4] and in assay [5] was more than 100 µM each time.
`CCN(CC)CCNC(=O)C(Cl)=C1C(Cl)=C(Cl)C(Cl)=C1Cl`: the GI50 in assay [1] is 3.83 µM; in assay [2] it was 2.98 µM; in assay [3], 2.78 µM; in assay [4] it was 3.01 µM; in assay [5], 4.23 µM. In addition, the concentration for total growth inhibition (TGI) in assay [1] was 31.3 µM; in assay [2] it was more than 100 µM; in assay [3], 10.8 µM; in assay [4], 25.3 µM; in assay [5] it was 41.3 µM.
Regarding `COc1ccc2c(c1)C(=O)c1c-2c(OCCN2CCCCC2)nc2ccc(OC)cc12`, the GI50 is 2.71 µM in assay [1]; 0.761 µM in assay [2]; 0.519 µM in assay [3]; 4.5 µM in assay [4]; 2.33 µM in assay [5]. The concentration for total growth inhibition (TGI) in assay [1] was determined as 15.3 µM; in assay [2], 10.3 µM; in assay [3], 2.19 µM; in assay [4] it was 22.8 µM; in assay [5], 21.3 µM.
For `C=CCCCC(O)c1ccc(C(O)c2cnc3ccccc3c2)o1` (stereo not drawn), the GI50 in assay [1] was 27 µM; in assay [2] it was 15.2 µM; in assay [3] it was 40 µM; in assay [4], 22.3 µM; in assay [5] it was 32.6 µM. Besides, the TGI in assay [1] was 69.9 µM; in assay [2], 36.9 µM; in assay [3], more than 100 µM; in assay [4] it was more than 100 µM; in assay [5], more than 100 µM.
For `O=C(c1ccccc1)c1c2n(c3c1cc(O)c1ccccc13)CCN2`, the GI50 in assay [1] was 2.13 µM; in assay [2] it was 23.5 µM; in assay [3], 13.2 µM; in assay [4], 10.9 µM; in assay [5], 2.69 µM. Further, the TGI is 4.51 µM in assay [1]; more than 100 µM in assay [2]; 27.1 µM in assay [3]; more than 100 µM in assay [4]; 13 µM in assay [5].
For the molecule `CCCCCCn1c2c(c3c(O)cccc31)C(=O)c1ccccc1-2`, the GI50 in assay [1] is 16.3 µM; in assay [2] it was 18 µM; in assay [3], 15.7 µM; in assay [4], 24.2 µM; in assay [5], 19.6 µM. Also, the TGI in assay [1] is 33.4 µM; in assay [2], 33 µM; in assay [3], 29.7 µM; in assay [4] it was 52.6 µM; in assay [5], 36.6 µM.
In the case of `COc1cccc(/C=C2\CCc3ccccc3C2=O)c1`, the GI50 in assay [1] was 22.8 µM; in assay [2], 10.1 µM; in assay [3], 6.07 µM; in assay [4], 3.33 µM; in assay [5], 16.3 µM. In addition, the TGI worked out at 87.6 µM in assay [1]; 48.8 µM in assay [2]; 18.7 µM in assay [3]; 17.9 µM in assay [4]; 65.1 µM in assay [5].
Consider `NCCCCCCCCCn1c2c(c3ccccc3c1=O)C(=O)c1ccccc1-2`, for which the GI50 in assay [1] is 1.13 µM; in assay [2] it was 9.47 µM; in assay [3], 5.98 µM; in assay [4], 10.3 µM; in assay [5], 10.6 µM. Moreover, the TGI in assay [1] worked out at 11.1 µM; in assay [2], 22.4 µM; in assay [3], 15.9 µM; in assay [4], 21.9 µM; in assay [5], 29.2 µM.
Regarding `CCN(CC)CC(O)c1cc(-c2ccc(Cl)cc2)nc2cc(Cl)ccc12` (stereo not drawn), the GI50 is 1.4 µM in assay [1]; 2.25 µM in assay [2]; 2.27 µM in assay [3]; 2.51 µM in assay [4]; 2.08 µM in assay [5]. The TGI in assay [1] came to 3.9 µM; in assay [2], 6.04 µM; in assay [3] it was 5.04 µM; in assay [4], 7.32 µM; in assay [5], 5.98 µM.
In the case of `COc1cc(/C=C2\CC3C4CCC5=CC(=O)CC[C@]5(C)C4CC[C@]3(C)C2=O)ccc1OCCN1CCCCC1` (stereo partly drawn), the GI50 is 1.85 µM in assay [1]; 4.62 µM in assay [2]; 2.06 µM in assay [3]; 4.79 µM in assay [4]; 2.33 µM in assay [5]. The TGI in assay [1] was 5.03 µM; in assay [2], more than 100 µM; in assay [3], 8.33 µM; in assay [4] it was 23 µM; in assay [5], 12.8 µM.
For `Cc1nc2cc(Nc3nc(Nc4ccc(F)cc4)nc(N4CCCC4)n3)ccc2n1Cc1ccccc1`, the GI50 in assay [1] is 1.78 µM; in assay [2], 1.96 µM; in assay [3], 1.87 µM; in assay [4] it was 2.23 µM; in assay [5], 1.77 µM. In addition, the concentration for total growth inhibition (TGI) was 3.27 µM in assay [1]; 3.94 µM in assay [2]; 3.35 µM in assay [3]; 6.67 µM in assay [4]; 4.29 µM in assay [5].
In the case of `COc1cc2oc(-c3ccc(O)cc3)cc(=O)c2c(OC)c1O`, the TGI in assay [1], in assay [2], in assay [3], in assay [4] and in assay [6] was more than 100 µM throughout.
Regarding `C=C(C)[C@@H]1CC[C@]2(C(=O)N3CCN(C)CC3)CC[C@]3(C)[C@H](CC[C@@H]4[C@@]5(C)CC[C@H](O)C(C)(C)[C@@H]5CC[C@]43C)[C@@H]12`, the GI50 was 1.88 µM in assay [1], 1.85 µM in assay [3], 1.94 µM in assay [4] and 1.74 µM in assay [5]. In addition, the TGI is 3.57 µM in assay [1], 3.4 µM in assay [3], 4.68 µM in assay [4] and 3.48 µM in assay [5].

The values are drawn from PubChem BioAssay (NCI).
